# Patent publication US20060275217A1, “Chemical exchange saturation transfer contrast agents” (priority 2005, published 2006)
# Tested on: blood pool
# Assay: Mouse CEST MR imaging at 4.7T
# Assay type: in vivo
# Settings: mouse sacrificed 1 minute after injection, ~0.6 mmol Eu(II)/kg, saturation at -52 ppm vs +52 ppm
# Description: Data was recorded at 4.7T on Bruker MR imager in a mouse sacrificed 1 minute after injection of Eu-polyLysine CEST (Example 4a) compound in water at a ˜0.6 mmol Eu(II)/kg dose (saturation pulse with a power of ˜25 μT for 2.0 s using 1000 Gauss pulses of 2 ms each).
# Reference tubes contain from left to right: water, compound at 10 mM Eu(III) concentration, compound at 50 mM Eu(III) concentration and, Magnevist at a concentration such that T1˜1s.
substance,measurement,value
"polylysine conjugate with the europium complex of 1,4,7,10-tetra-[N-(carboxymethyl)-carbamoyl-methyl]1,4,7,10-tetraaza-cyclododecane [Example 4a]",contrast in digital difference axial image (control minus CEST image),contrast enhancement in the blood pool
